What all share (assay): NCI tumour cell line growth inhibition, 48 h
In assay [1] the test system is 786-0 renal.
Assay [2] concerns COLO 205 colon.
The subject of assay [3] is EKVX NSCLC.
Assay [4] relates to HCC-2998 colon.
The test system of assay [5] is HCT-116 colon.
Assay [6] concerns HOP-62 NSCLC.
For assay [7], the system named is HS 578T breast.
Assay [8] has as its system HT29 colon.
In assay [9] the test system is IGROV1 ovarian.
Assay [10] relates to KM12 colon.
For assay [11], the system named is MALME-3M melanoma.
For assay [12], the system named is MDA-N.
Assay [13] relates to NCI-H226 lung.
Assay [14] concerns OVCAR-5 ovarian.
For assay [15], the system named is RXF 393 renal.
Assay [16] concerns SF-268 CNS.
Assay [17] concerns SF-295 CNS.
Assay [18] has as its system SNB-19 CNS.
Assay [19] deals with SNB-75 CNS.

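Growth conditions: 96-well plates. Treatment: test compound, 48 hours, 5 concentrations. Analysis: linear interpolation between bracketing concentrations; unreached endpoints set to highest concentration. TGI is the concentration that stops growth completely.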

With `NC1=CN(Cc2ccccc2)C2=N/C(=C\c3ccco3)C(=O)N12`, the TGI in assay [1], in [2], in assay [3], in assay [4], in assay [5] and in [6] was above 100 µM throughout. In addition, the TGI in assay [7], in assay [8], in assay [9], in assay [10], in assay [11] and in [12] was above 100 µM in each case. Moreover, the TGI in assay [13], in assay [14], in assay [15], in [16], in assay [17] and in assay [18] was above 100 µM each time. In assay [19], this compound had a TGI above 100 µM.
For the compound `COC(=O)c1c(OC(C)=O)ccc2c1c1cc3ccccc3c(OC(C)=O)c1n2C`, the TGI in [1] was 43.2 µM; in assay [2], 69.8 µM; in assay [3], above 100 µM; in [4], 91.7 µM; in assay [5], 74 µM; in assay [6], above 100 µM. Also, the TGI in [7] was 36.7 µM; in [8], 69.1 µM; in assay [9], 12.8 µM; in assay [10], above 100 µM; in assay [11], 56.2 µM; in [12] it was above 100 µM. Moreover, the TGI in [13], in [14], in [15], in assay [16], in assay [17] and in assay [18] was above 100 µM throughout. Besides, the TGI in [19] came to 36 µM.
As for `CCOC(=O)/C=C1\C[C@H](NC(=O)OCc2ccccc2)C(=O)N1CC(=O)OCC`, the TGI in assay [1], in [2], in assay [3], in assay [4], in assay [5] and in assay [6] was above 100 µM each time. The TGI in [7], in assay [8], in [9], in assay [10], in assay [11] and in [12] was above 100 µM in each case. Moreover, the TGI in assay [13], in assay [14], in [15], in [16], in assay [17] and in [18] was above 100 µM each time. For the same compound, in assay [19], the TGI was above 100 µM.
In the case of `Cc1cccc2c(=O)c3c(O)cc4c(c3n(C)c12)C=CC(C)(C)O4`, the TGI in assay [1], in [2], in [3], in assay [4], in [5] and in assay [6] was above 100 µM each time. The TGI is above 100 µM in assay [7]; 36.8 µM in assay [8]; above 100 µM in [9]; above 100 µM in assay [10]; above 100 µM in assay [11]; above 100 µM in [12]. The TGI is above 100 µM in assay [13]; above 100 µM in [14]; 38 µM in [15]; above 100 µM in assay [16]; above 100 µM in assay [17]; above 100 µM in assay [18]. Besides, the TGI in assay [19] is above 100 µM.
Take `CC1OC(n2cnc3c(N)nc(Cl)nc32)C(C)(O)C1O` (stereo not drawn): the TGI in assay [1], in assay [2], in assay [3], in assay [4], in assay [5] and in [6] was above 25 µM in each case. The TGI in assay [7], in assay [8], in assay [9], in [10], in assay [11] and in assay [12] was above 25 µM in each case. In addition, the TGI in assay [13], in [14], in assay [15], in assay [16], in [17] and in assay [18] was above 25 µM in each case. In [19], this compound gave a TGI of 15.2 µM.
As for `COc1ccc(/C=C2\CC3C4CC=C5C[C@@H](O)CC[C@]5(C)C4CC[C@]3(C)C2=O)cc1OC` (stereo partly drawn), the TGI in assay [1] is above 100 µM; in assay [2], 47 µM; in assay [3], above 100 µM; in assay [4], above 100 µM; in assay [5], above 100 µM; in assay [6], above 100 µM. The TGI in [7], in assay [8], in assay [9], in assay [10], in assay [11] and in assay [12] was above 100 µM in each case. The TGI was above 100 µM in assay [13]; above 100 µM in assay [14]; above 100 µM in assay [15]; above 100 µM in assay [16]; 50.4 µM in [17]; above 100 µM in [18]. The compound further yielded a TGI in assay [19] above 100 µM.
Consider `CCOC(=O)c1c[nH]c2cc3c(cc2c1=O)CCS3`, for which the TGI in [1], in assay [2], in assay [3], in assay [4], in [5] and in assay [6] was above 100 µM throughout. The TGI in assay [7], in assay [8], in [9], in assay [10], in [11] and in assay [12] was above 100 µM each time. The TGI in [13], in assay [14], in assay [15], in assay [16], in assay [17] and in [18] was above 100 µM each time. The same compound registered a TGI in assay [19] above 100 µM.

The values above are taken from PubChem BioAssay (NCI).
